Results taken from PubChem BioAssay AID328 (DTP/NCI, 2004).
Several values for one entry are separate records, joined by “and”; a condition that tells them apart may be missing. Identical values can stand only once. Inconclusive results and toxic doses are left out.

Tested on: BDF1 mice, P388 leukemia ip, median survival T/C
Experiment: NCI In Vivo Anticancer Drug Screen. Data for tumor model P388 Leukemia (intraperitoneal) in B6D2F1 (BDF1) mice
Conditions: endpoint: median survival time, higher = longer survival
How it was run: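 Read-out is survival of treated animals expressed relative to the vehicle group, as a T/C ratio.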

[1] = dose: 25.0 mg/kg/injection, schedule: Q04DX003 (ip), vehicle: saline with Tween-80
[2] = dose: 100.0 mg/kg/injection, schedule: Q04DX003 (ip), vehicle: saline with Tween-80
[3] = dose: 200.0 mg/kg/injection, schedule: Q04DX003 (ip), vehicle: saline with Tween-80
[4] = dose: 400.0 mg/kg/injection, schedule: Q04DX003 (ip), vehicle: saline with Tween-80
[5] = dose: 200.0 mg/kg/injection, schedule: Q01DX009 (ip), vehicle: Klucel (hydroxypropylcellulose) (HPC)
[6] = dose: 100.0 mg/kg/injection, schedule: Q01DX009 (ip), vehicle: saline with Tween-80
[7] = dose: 200.0 mg/kg/injection, schedule: Q01DX009 (ip), vehicle: saline with Tween-80
[8] = dose: 50.0 mg/kg/injection, schedule: Q01DX009 (ip), vehicle: saline with Tween-80
[9] = dose: 50.0 mg/kg/injection, schedule: Q01DX010 (ip), vehicle: saline
[10] = dose: 100.0 mg/kg/injection, schedule: Q01DX010 (ip), vehicle: saline

COC(=O)C1C2CCC3C2C(C)(C)CCCC31C (stereo unspecified)
T/C [1]: 100 % of control | T/C (dose: 50.0 mg/kg/injection, schedule: Q04DX003 (ip), vehicle: saline with Tween-80): 95 % of control | T/C [2]: 104 % of control | T/C [3]: 118 % of control

CCOC(=O)C(O)(NC(=O)N/N=C/c1ccccc1)C(=O)OCC
T/C [2]: 104 % of control | T/C [3]: 112 % of control | T/C [4]: 91 % of control

[Cl][Rh][Cl].[NH-]c1ccc(S(N)(=O)=O)cc1.[NH-]c1ccc(S(N)(=O)=O)cc1.[NH-]c1ccc(S(N)(=O)=O)cc1.[NH-]c1ccc(S(N)(=O)=O)cc1
T/C [2]: 108 % of control | T/C [3]: 103 % of control | T/C [4]: 107 % of control

CC1=Nc2ccccc2/C1=C\c1c(C)[nH]c2ccccc12
T/C (dose: 5.5 mg/kg/injection, schedule: Q01DX009 (ip), vehicle: Klucel (hydroxypropylcellulose) (HPC)): 109 % of control | T/C (dose: 8.2 mg/kg/injection, schedule: Q01DX009 (ip), vehicle: Klucel (hydroxypropylcellulose) (HPC)): 118 % of control | T/C (dose: 12.5 mg/kg/injection, schedule: Q01DX009 (ip), vehicle: Klucel (hydroxypropylcellulose) (HPC)): 161 % of control | T/C (dose: 33.0 mg/kg/injection, schedule: Q01DX009 (ip), vehicle: Klucel (hydroxypropylcellulose) (HPC)): 103 % of control and 109 % of control | T/C (dose: 75.0 mg/kg/injection, schedule: Q01DX009 (ip), vehicle: Klucel (hydroxypropylcellulose) (HPC)): 96 % of control and 113 % of control | T/C [5]: 154 % of control

CC(=O)OCc1cc2cc(O)ccc2nc1C
T/C (dose: 25.0 mg/kg/injection, schedule: Q01DX009 (ip), vehicle: saline): 98 % of control | T/C (dose: 50.0 mg/kg/injection, schedule: Q01DX009 (ip), vehicle: saline): 107 % of control | T/C (dose: 50.0 mg/kg/injection, schedule: Q04DX003 (ip), vehicle: saline): 111 % of control | T/C (dose: 100.0 mg/kg/injection, schedule: Q01DX009 (ip), vehicle: saline): 101 % of control | T/C (dose: 100.0 mg/kg/injection, schedule: Q04DX003 (ip), vehicle: saline): 110 % of control and 115 % of control | T/C (dose: 200.0 mg/kg/injection, schedule: Q01DX009 (ip), vehicle: saline): 116 % of control | T/C (dose: 200.0 mg/kg/injection, schedule: Q04DX003 (ip), vehicle: saline): 92 % of control and 110 % of control | T/C (dose: 400.0 mg/kg/injection, schedule: Q01DX009 (ip), vehicle: saline): 91 % of control | T/C (dose: 400.0 mg/kg/injection, schedule: Q04DX003 (ip), vehicle: saline): 97 % of control and 104 % of control and 116 % of control

COC(=O)C1(C)CCc2c(ccc3ccccc23)C1=O (stereo unspecified)
T/C (dose: 100.0 mg/kg/injection, schedule: Q01DX001 (ip), vehicle: other): 100 % of control | T/C (dose: 200.0 mg/kg/injection, schedule: Q01DX001 (ip), vehicle: other): 95 % of control | T/C (dose: 400.0 mg/kg/injection, schedule: Q01DX001 (ip), vehicle: other): 113 % of control

Cc1nnc2c(=S)[nH]ccn12
T/C (dose: 100.0 mg/kg/injection, schedule: Q01DX001 (ip), vehicle: saline with Tween-80): 113 % of control | T/C (dose: 200.0 mg/kg/injection, schedule: Q01DX001 (ip), vehicle: saline with Tween-80): 106 % of control | T/C (dose: 400.0 mg/kg/injection, schedule: Q01DX001 (ip), vehicle: saline with Tween-80): 100 % of control

CC(C)CCS(=O)(=O)OCCCCOS(=O)(=O)CCC(C)C
T/C [6]: 114 % of control | T/C [2]: 100 % of control | T/C [7]: 109 % of control | T/C [3]: 100 % of control | T/C (dose: 400.0 mg/kg/injection, schedule: Q01DX009 (ip), vehicle: saline with Tween-80): 114 % of control | T/C [4]: 104 % of control

CCCCCCCCCOCC1CO1 (stereo unspecified)
T/C [8]: 111 % of control | T/C [6]: 110 % of control | T/C [7]: 101 % of control

CNC(=N)c1ccc(NC(=N)c2ccc(NC(=N)c3ccc(NC(=O)Nc4ccc(C(=N)Nc5ccc(C(=N)Nc6ccc(C(=N)NC)cc6)cc5)cc4)cc3)cc2)cc1
T/C (dose: 12.5 mg/kg/injection, schedule: Q04DX003 (ip), vehicle: saline with Tween-80): 150 % of control | T/C (dose: 19.0 mg/kg/injection, schedule: Q04DX003 (ip), vehicle: saline with Tween-80): 162 % of control and 186 % of control | T/C (dose: 25.0 mg/kg/injection, schedule: Q01DX009 (ip), vehicle: saline with Tween-80): 165 % of control and 180 % of control | T/C [1]: 163 % of control | T/C (dose: 29.0 mg/kg/injection, schedule: Q04DX003 (ip), vehicle: saline with Tween-80): 272 % of control and 172 % of control | T/C (dose: 44.0 mg/kg/injection, schedule: Q04DX003 (ip), vehicle: saline with Tween-80): 231 % of control and 195 % of control | T/C [8]: 230 % of control | T/C (dose: 66.0 mg/kg/injection, schedule: Q04DX003 (ip), vehicle: saline with Tween-80): 200 % of control | T/C (dose: 67.0 mg/kg/injection, schedule: Q04DX003 (ip), vehicle: saline with Tween-80): 229 % of control and 195 % of control | T/C [6]: 92 % of control | T/C [2]: 250 % of control and 222 % of control

Cc1cc(C)c(S(=O)(=O)ON=C2c3ccccc3-c3ccccc32)c(C)c1
T/C (dose: 25.0 mg/kg/injection, schedule: Q01DX001 (ip), vehicle: Klucel (hydroxypropylcellulose) (HPC)): 100 % of control | T/C (dose: 50.0 mg/kg/injection, schedule: Q01DX001 (ip), vehicle: Klucel (hydroxypropylcellulose) (HPC)): 109 % of control | T/C (dose: 100.0 mg/kg/injection, schedule: Q01DX001 (ip), vehicle: Klucel (hydroxypropylcellulose) (HPC)): 113 % of control | T/C (dose: 100.0 mg/kg/injection, schedule: Q01DX009 (ip), vehicle: Klucel (hydroxypropylcellulose) (HPC)): 105 % of control | T/C (dose: 200.0 mg/kg/injection, schedule: Q01DX001 (ip), vehicle: Klucel (hydroxypropylcellulose) (HPC)): 95 % of control | T/C [5]: 95 % of control | T/C (dose: 400.0 mg/kg/injection, schedule: Q01DX001 (ip), vehicle: Klucel (hydroxypropylcellulose) (HPC)): 109 % of control | T/C (dose: 400.0 mg/kg/injection, schedule: Q01DX009 (ip), vehicle: Klucel (hydroxypropylcellulose) (HPC)): 110 % of control

Nc1nc(=S)c2[nH]c(=S)[nH]c2[nH]1
T/C (dose: 78.0 mg/kg/injection, schedule: Q04DX003 (ip), vehicle: saline with Tween-80): 104 % of control | T/C (dose: 118.0 mg/kg/injection, schedule: Q04DX003 (ip), vehicle: saline with Tween-80): 112 % of control | T/C [4]: 172 % of control | T/C (dose: 600.0 mg/kg/injection, schedule: Q04DX003 (ip), vehicle: saline with Tween-80): 186 % of control

CC(=O)[C@H]1CC[C@H]2[C@@H]3CC[C@@H]4C[C@@H](O)CC[C@]4(C)[C@H]3CC[C@]12C
T/C (dose: 163.0 mg/kg/injection, schedule: Q01DX009 (ip), vehicle: saline with Tween-80): 109 % of control | T/C (dose: 325.0 mg/kg/injection, schedule: Q01DX009 (ip), vehicle: saline with Tween-80): 100 % of control

CNC(=S)N(C)C
T/C (dose: 50.0 mg/kg/injection, schedule: Q01DX001 (ip), vehicle: saline): 95 % of control | T/C (dose: 100.0 mg/kg/injection, schedule: Q01DX001 (ip), vehicle: saline): 103 % of control and 104 % of control | T/C (dose: 200.0 mg/kg/injection, schedule: Q01DX001 (ip), vehicle: saline): 95 % of control and 104 % of control | T/C (dose: 400.0 mg/kg/injection, schedule: Q01DX001 (ip), vehicle: saline): 91 % of control

Clc1ccccc1CCCBr
T/C [2]: 95 % of control | T/C [3]: 100 % of control | T/C [4]: 105 % of control

CN1Cc2c(ccc3c2OCO3)[C@@H]2[C@H](O)Cc3cc4c(cc3[C@@H]21)OCO4
T/C [9]: 100 % of control | T/C [10]: 100 % of control

O=S1(=O)C(Cc2ccccc2)CCCN1c1ccccc1 (stereo unspecified)
T/C (dose: 100.0 mg/kg/injection, schedule: Q04DX002 (ip), vehicle: saline with Tween-80): 104 % of control | T/C (dose: 200.0 mg/kg/injection, schedule: Q04DX002 (ip), vehicle: saline with Tween-80): 104 % of control | T/C (dose: 400.0 mg/kg/injection, schedule: Q04DX002 (ip), vehicle: saline with Tween-80): 102 % of control

Cn1c(=O)c2[nH]cnc2n(C)c1=O
T/C (dose: 25.0 mg/kg/injection, schedule: Q01DX010 (ip), vehicle: saline): 95 % of control | T/C [9]: 104 % of control | T/C [10]: 100 % of control | T/C (dose: 200.0 mg/kg/injection, schedule: Q01DX010 (ip), vehicle: saline): 104 % of control
